Patent publication US4728734A, “C-3'thioiminosulfonyl cephalosporin analogs” (American Home Products Corporation, priority 1985, dated 1988)
Values after ≈ are worked out from the molar mass of the structure shown. Where a name gives a salt, the structure may show the parent alone.

What was measured:
Type in all cases: cell-based
[1] = tested on: Enterobacter cloacae ATCC 13047; test: Antibacterial activity, agar dilution MIC, Enterobacter cloacae ATCC 13047; conditions: ATCC13047, 18 hours at 35° C.
Description: (§1) The compounds of the invention are tested for their antibacterial activity. The test is carried out as follows:
(§2) The organisms used in the test comprise the following:
(§3) Staphylococcus aureus (penicillin-sensitive and resistant), Pseudomonas aeruginosa, Escherichia coli, […] pneumoniae, Bordetella bronchiseptica, Proteus vulgaris, P. mirabilis, Acinetobacter calcoaceticus.
(§4) Test organisms may be added or deleted in order to reflect current clinical patterns of antibiotic susceptibility or shifts in pathogenic potential.
(§5) Organisms are normally grown for 18 hours in Brain Heart Infusion at 35° C. Cultures are adjusted with saline to MacFarland No. 1.5 standard prior to use.
(§6) Stock concentrations (e.g. 2,5000 μg or units per ml) are prepared in a suitable vehicle. Two-fold dilutions are made. One ml quantities of each dilution are incorporated in 9 ml of the appropriate agar (e.g. Seed) in sterile Petri plates. The hardened surface is inoculated with test organisms by use of a Steers replicating device. The plates are incubated (e.g. 18 hours at 35° C.) and activity is determined.

[2] = tested on: Klebsiella pneunomiae KL-1; test: Antibacterial activity, agar dilution MIC, Klebsiella pneunomiae KL-1; conditions: KL1, 18 hours at 35° C.
Description: as §1, §2, §3, §4, §5, §6

[3] = tested on: Serratia marcescens ATCC 13880; test: Antibacterial activity, agar dilution MIC, Serratia marcescens ATCC 13880; conditions: ATCC13880, 18 hours at 35° C.
Description: as §1, §2, §3, §4, §5, §6

[4] = tested on: Streptococcus faecalis ATCC 29212; test: Antibacterial activity, agar dilution MIC, Streptococcus faecalis ATCC 29212; conditions: Enterococcus faecalis, ATCC29212, 18 hours at 35° C.
Description: as §1, §2, §3, §4, §5, §6

[5] = tested on: Proteus vulgaris A 84354 1; test: Antibacterial activity, agar dilution MIC, Proteus vulgaris A 84354 1; conditions: A843541, 18 hours at 35° C.
Description: as §1, §2, §3, §4, §5, §6

[6] = tested on: Staphylococcus aureus ATCC 29213; test: Antibacterial activity, agar dilution MIC, Staphylococcus aureus ATCC 29213; conditions: ATCC29213, 18 hours at 35° C.
Description: as §1, §2, §3, §4, §5, §6

[7] = tested on: Escherichia coli ATCC 25922; test: Antibacterial activity, agar dilution MIC, Escherichia coli ATCC 25922; conditions: ATCC25922, 18 hours at 35° C.
Description: as §1, §2, §3, §4, §5, §6

[8] = tested on: Pseudomonas aeruginosa ATCC 27853; test: Antibacterial activity, agar dilution MIC, Pseudomonas aeruginosa ATCC 27853; conditions: ATCC27853, 18 hours at 35° C.
Description: as §1, §2, §3, §4, §5, §6

CO/N=C(\C(=O)N[C@@H]1C(=O)N2C(C(=O)OC(C)(C)C)=C(CSC3=NS(=O)(=O)c4cscc43)CS[C@H]12)c1csc(N)n1 [Example 1 B., (6R,7R)-7[[(2-Amino-4-thiazolyl)(methoxyimino)acetyl]amino]-8-oxo-3-[(thieno[3,4-d]isothiazol-3-ylthio)methyl]-5-thia-1-azabicyclo[4.2.0]oct-2-ene-2-carboxylic acid 1,1-dimethylethyl ester S^3,S^3-dioxide]
MIC [1]: > 256 µg/mL
MIC [2]: 2 µg/mL (≈ 3.04 µM)
MIC [3]: 32 µg/mL (≈ 48.7 µM)
MIC [4]: > 256 µg/mL
MIC [5]: 2 µg/mL (≈ 3.04 µM)
MIC [6]: 128 µg/mL (≈ 195 µM)
MIC [7]: 8 µg/mL (≈ 12.2 µM)
MIC [8]: > 256 µg/mL

CO/N=C(\C(=O)N[C@@H]1C(=O)N2C(C(=O)O)=C(CSC3=NS(=O)(=O)c4cscc43)CS[C@H]12)c1csc(N)n1 [Example 1 C., (6R,7R)-7-[[(2-Amino-4-thiazolyl)(methoxyimino)acetyl]amino]-8-oxo-3-[(thieno-[3,4-d]isothiazol-3-ylthio)methyl]-5-thia-1-azabicyclo[4.2.0]oct-2-ene-2-carboxylic acid S^3,S^3-dioxide, trifluoroacetate salt]
MIC [1]: 32 µg/mL
MIC [2]: < 1 µg/mL
MIC [3]: 2 µg/mL
MIC [4]: 256 µg/mL
MIC [5]: < 1 µg/mL
MIC [6]: 32 µg/mL
MIC [7]: 2 µg/mL
MIC [8]: > 256 µg/mL
